From patent publication US8802638B1, “Flavonoid treatment of glycogen synthase kinase-based disease” (University of South Florida, priority 2007, dated 2014)

Legend:
SweAPP N2a cells = test: APP proteolysis (Aβ ELISA, IP, APP CTF Western blot) in SweAPP N2a cells; format: cell-based, murine
Description: (§1) Cultured cells or mouse brain were lysed in ice-cold lysis buffer described above, and an aliquot corresponding to 50 μg of total protein was electrophoretically separated using 12% Tris-HCl or 16.5% Tris-tricine gels. Electrophoresed proteins were then transferred to PVDF membranes, washed in dH2O, and blocked for 1 hr at ambient temperature in Tris-buffered saline (TBS; Bio-Rad) containing 5% (w/v) non-fat dry milk. After blocking, membranes were hybridized for 1 hr at ambient temperature with various primary antibodies. Membranes were then washed 3× for 5 min each in dH2O and incubated for 1 hr at ambient temperature with the appropriate HRP-conjugated secondary antibody (1:1,000). Antibodies were obtained against the amino-terminus and carboxyl-terminus of PS1 (Chemicon, Temecula, Calif.), amino-terminus and carboxyl-terminus of APP (22C11), actin (Roche, Basel, Switzerland), Aβ (6E10, 48G) (Signet Laboratories, Dedham, Mass.), phosphor-GSK3α (ser^21, clone BK202) (Upstate, Lake Placid, N.Y.), phospho-GSK3α/β (pTyr^279/216) (Sigma), phospho-GSK-3β (Ser^9) (Sigma) and total GSK-3α/β (Sigma). All antibodies were diluted in TBS containing 5% (w/v) of non-fat dry milk. Blots were developed using the luminol reagent (Pierce Biotechnology). Densitometric analysis was done as previously described using a FluorS Multiimager with Quantity One™ software (39). Immunoprecipitation was performed for detection of sAPP-α, sAPP-β and Aβ by incubating 200 μg of total protein of each sample with various sequential combinations of 6E10 (1:100) and/or 22C11 (1:100) antibodies overnight with gentle rocking at 4° C., and 10 μL of 50% protein A-Sepharose beads were then added to the sample (1:10; Sigma) prior to gentle rocking for an additional 4 hrs at 4° C. Following washes with 1× cell lysis buffer, samples were subjected to Western blot as described above. Antibodies used for Western blot included the APP-carboxyl-terminal antibody (1:50)), amino-terminal APP antibody (clone 22C11), or 6E10 (1:1,000), or actin antibody (1:1,500; as an internal reference control). γ-secretase activity was quantified in cell lysates using available kits based on secretase-specific peptides conjugated to fluorogenic reporter molecules.
SweAPP N2a cells and primary neuronal cells derived from Tg2576 mice were treated with varying doses of luteolin to examine luteolin's effect on APP proteolysis. Cellular extracts were collected and analyzed using immunoprecipitation (IP), Western blot, and ELISA. […] See FIGS. 1 through 2(B) and 5 through 6(B). SweAPP N2a and primary Tg2576-derived neuronal cells CTF profiles were analyzed following luteolin treatment to determine at which level luteolin impacts amyloid processing.

GSK-3α/β = test: Western blot of phosphorylated GSK-3α/β forms in SweAPP N2a cells; format: cell-based, murine; conditions: 20 μM
Description: as §1, with “Immunoprecipitation was performed for detection of sAPP-α, sAPP-β and Aβ by incubating 200 μg of total protein of each sample with various sequential combinations of 6E10 (1:100) and/or 22C11 (1:100) antibodies overnight with gentle rocking at 4° C., and 10 μL of 50% protein A-Sepharose beads were then added to the sample (1:10; Sigma) prior to gentle rocking for an additional 4 hrs at 4° C. Following washes with 1× cell lysis buffer, samples were subjected to Western blot as described above.” left out
The effect luteolin had on a variety of proteins related to and/or required for proper functioning of the γ-secretase complex was evaluated to establish the mechanism whereby luteolin modulates γ-secretase activity and subsequent Aβ generation. […]

PS1 = PS1 processing and PS1-APP association in brain homogenates of luteolin-treated Tg2576 mice; format: in vivo; conditions: 20 mg/kg i.p. daily for 30 days
Description: Sixteen (8♂/8♀) Tg2576 mice (Taconic, Germantown, N.Y.) were used; 8 mice received luteolin, and the other 8 received phosphate buffered saline (PBS). Beginning at 8 months of age, Tg2576 mice were intraperitoneally injected with luteolin (20 mg/kg) or PBS daily for 30 days based on previously described methods. These mice were then sacrificed at 9 months of age for analyses of Aβ levels and Aβ load in the brain according to previously described methods. Animals were housed and maintained in the College of Medicine Animal Facility at the University of South Florida (USF), and all experiments were in compliance with protocols approved by the USF Institutional Animal Care and Use Committee.
Cultured cells or mouse brain were lysed in ice-cold lysis buffer described above, and an aliquot corresponding to 50 μg of total protein was electrophoretically separated using 12% Tris-HCl or 16.5% Tris-tricine gels. Electrophoresed proteins were then transferred to PVDF membranes, washed in dH2O, and blocked for 1 hr at ambient temperature in Tris-buffered saline (TBS; Bio-Rad) containing 5% (w/v) non-fat dry milk. After blocking, membranes were hybridized for 1 hr at ambient temperature with various primary antibodies. Membranes were then washed 3× for 5 min each in dH2O and incubated for 1 hr at ambient temperature with the appropriate HRP-conjugated secondary antibody (1:1,000). […] Densitometric analysis was done as previously described using a FluorS Multiimager with Quantity One™ software (39). […] Antibodies used for Western blot included the APP-carboxyl-terminal antibody (1:50)), amino-terminal APP antibody (clone 22C11), or 6E10 (1:1,000), or actin antibody (1:1,500; as an internal reference control). γ-secretase activity was quantified in cell lysates using available kits based on secretase-specific peptides conjugated to fluorogenic reporter molecules. […]
Brain homogenates from these mice were subsequently analyzed by immunoprecipitation, Western blot, and ELISA, seen in FIGS. 28(A) through 37. […]

O=c1cc(-c2ccc(O)c(O)c2)oc2cc(O)cc(O)c12 [luteolin]
accumulation of both α and β CTFs (increase over control) (SweAPP N2a cells; dose dependent, 12 hrs, Western blot densitometry, SweAPP N2a cells): 2-3 fold
Aβ1-40, 42 peptide generation abrogated (SweAPP N2a cells; luteolin 20 μM, 12 hrs, SweAPP N2a cells): > 70%
Aβ1-40, 42 peptide generation abrogated (SweAPP N2a cells; luteolin 40 μM, 12 hrs, SweAPP N2a cells): > 85%
Aβ1-40, 42 production (SweAPP N2a cells; result in words, ELISA/IP/Western blot): effectively reduced Aβ1-40, 42 production in either cell line in a dose dependent manner
overall expression of GSK3-α or β (GSK-3α/β; Western blot): no significant changes
selectivity of GSK-3α over GSK-3β inactivation (GSK-3α/β; time course): selectively inactivates GSK-3α isoforms over β isoforms
holo APP expression in brain homogenates (PS1): no significant changes
PS1-APP association in brain homogenates (PS1; IP with PS1 antibody): effectively abolished PS1-APP association
PS1 processing (PS1 CTF to actin ratio) (PS1; brain homogenates): significantly lower levels of PS1 processing
